In patent US4839355A, “Tricyclic-pyridinylquinoline compounds, their preparation and use” (Sterling Drug Inc., priority 1988, dated 1989):
In brackets after ≈: the same amount, converted by molar mass. Where two headings read alike, the source gives them in different places.

Columns and labels:
[1] = system: Micrococcus luteus; experiment: In vitro antimicrobial activity, microplate dilution MIC, Micrococcus luteus; assay type: cell-based
Method: (§1) The in vitro antimicrobial activity of the compounds of the invention was determined by a microplate dilution procedure. Bacterial cultures were grown in Meuller Hintom II (cation supplemented) broth (S. aureus, S. faecalis, M. luteus, E. coli and P. aeruginosa), Brain Heart Infusion (BHI) broth supplemented with 10% heat inactivated horse serum (S. penumoniae) or BHI broth supplemented with 5 mcg/ml Hemin and 0.5 mcg/ml vitamin K (B. fragilis) at 37° C. for 18-24 hrs. The cultures were grown under aerobic conditions with the exception of B. fragilis which was grown 48 hrs. under anaerobic conditions (atmosphere 5% CO2, 10% H2 and 85% N2). Resulting suspensions were diluted 1/10 in the appropriate broth or used undiluted for the inoculum. Aqueous solutions of the compounds of the invention were solubilized in dimethylsulfoxide (DMSO) at the desired concentration and 200 mcl were dispensed into the first row of wells of a sterile microplate. The compounds were then serially diluted two-fold in DMSO to give a working stock concentration range plate. The last row of wells was left compound-free receiving only DMSO to serve as a growth control. Five mcl from each well of the working stock plate was transferred to corresponding wells of a separate plate containing 95 mcl/well of the appropriate broth. All dilutions were made with either an automated dilutor or manually. The wells of microplate containing the desired compound concentrations and compound-free growth controls in broth were then inoculated using the MIC 2000 inoculator which delivers 1.5 mcl/well to give a final inoculum level of 10^4 microorganism/well or 10^5 microorganism/ml. Plates were incubated as described above and read for visible growth. The minimal inhibitory concentration (MIC: expressed in mcg/ml) of each compound tested against each test microorganism was determined as the lowest concentration of compound which prevents visible microbial growth.

[2] = system: Escherichia coli; experiment: In vitro antimicrobial activity, microplate dilution MIC, Escherichia coli; assay type: cell-based
Method: as §1

[3] = system: Staphylococcus aureus; experiment: In vitro antimicrobial activity, microplate dilution MIC, Staphylococcus aureus; assay type: cell-based; details: for MIC: Staphylococcus aureus, in vitro
Method: as §1

[4] = system: Streptococcus faecalis; experiment: In vitro antimicrobial activity, microplate dilution MIC, Streptococcus faecalis; assay type: cell-based; details: Enterococcus faecalis
Method: as §1

[5] = system: Streptococcus pneumoniae; experiment: In vitro antimicrobial activity, microplate dilution MIC, Streptococcus pneumoniae; assay type: cell-based
Method: as §1

[6] = system: Pseudomonas aeruginosa; experiment: In vitro antimicrobial activity, microplate dilution MIC, Pseudomonas aeruginosa; assay type: cell-based; details: 10^5 microorganism/ml, read-out: MIC (minimal inhibitory concentration), PA
Method: as §1

[7] = system: Bacteroides fragilis; experiment: In vitro antimicrobial activity, microplate dilution MIC, Bacteroides fragilis; assay type: cell-based
Method: as §1

[8] = system: Staph. aureus; experiment: In vivo antibacterial activity in female mice, Staph. aureus infection; design: species or system Staphylococcus aureus; details: mouse; for ED50: Staphylococcus aureus, 168 h, one-half hour postinfection, deaths over seven days
Method: (§2) The in vivo antibacterial activity of the compounds of the invention was determined in female mice, 18-20 grams each. Aqueous solutions of the compounds to be tested were prepared by dissolving the free acid form in dilute sodium hydroxide and diluting the solution with distilled water to the desired concentration.
(§3) Cultures of E. coli were grown in brain heart infusion broth, and the mice were inoculated intraperitoneally with 0.5 ml of the bacterial test inoculum suspended in saline. Cultures of Staph. aureus were thawed from frozen pooled stocks and mixed with 5% mucin. A 0.5 ml preparation was used to infect mice by i.p. inoculation.
(§4) The mice were medicated subcutaneously (sc) or orally (po) with 0.5 ml of the test compound solution one-half hour postinfection. Deaths were recorded daily for seven days. Fifty percent protective dose values (PD50) were calculated using probit analyis.

[9] = system: E. coli; experiment: In vivo antibacterial activity in female mice, E. coli infection; design: species or system Escherichia coli; details: mouse; for ED50: Escherichia coli, 168 h, one-half hour postinfection, deaths over seven days; for in vivo activity against E. coli compared with compounds P and Q: Table II
Method: as §2, §3, §4

[10] = system: bacteria; experiment: In vitro antimicrobial activity, overall comparison over the bacterial panel; assay type: cell-based; details: for improved in vitro activity against named organisms: Staph. aureus, Strep. faecalis, Strep. pneumoniae
Method: as §1

[11] = 10^5 microorganism/ml, read-out: MIC (minimal inhibitory concentration), ML
[12] = 10^5 microorganism/ml, read-out: MIC (minimal inhibitory concentration), EC
[13] = 10^5 microorganism/ml, read-out: MIC (minimal inhibitory concentration), SA
[14] = Streptococcus faecalis, 10^5 microorganism/ml, read-out: MIC (minimal inhibitory concentration), SF
[15] = 10^5 microorganism/ml, 10% horse serum in BHI broth, read-out: MIC (minimal inhibitory concentration), SP
[16] = 10^5 microorganism/ml, anaerobic, read-out: MIC (minimal inhibitory concentration), BF
[17] = po, read-out: PD50 (fifty percent protective dose), Staph. aureus, po
[18] = sc, read-out: PD50 (fifty percent protective dose), Staph. aureus, sc
[19] = po, read-out: PD50 (fifty percent protective dose), E. coli, po
[20] = sc, read-out: PD50 (fifty percent protective dose), E. coli, sc
[21] = Staph. aureus, from Table I MICs
[22] = Strep. pneumoniae, read-out: MIC

| SMILES | MIC [1, 11] | MIC [2, 12] | MIC [3, 13] | MIC [4, 14] | MIC [5, 15] | MIC [6] | MIC [7, 16] | ED50 [8, 17] | ED50 [8, 18] | ED50 [9, 19] | ED50 [9, 20] | other results |
| --- | --- | --- | --- | --- | --- | --- | --- | --- | --- | --- | --- | --- |
| Cc1cc(-c2c(F)c(F)c3c(=O)c(C(=O)O)cn4c3c2OC[C@@H]4C)cc(C)n1 [A, (S)-10-(2,6-Dimethyl-4-pyridinyl)-8,9-difluoro-3-methyl-7-oxo-2,3-dihydro-7H-pyrido[1,2,3-de][1,4]benzoxazine-6-carboxylic acid] | 1 µg/mL (≈ 2.59 µM) | 0.125 µg/mL (≈ 0.324 µM) | 0.016 µg/mL (≈ 0.0414 µM) | 0.125 µg/mL (≈ 0.324 µM) | 0.06 µg/mL (≈ 0.155 µM) | 8 µg/mL (≈ 20.7 µM) | 1 µg/mL (≈ 2.59 µM) | 0.13 mg/kg | 0.05 mg/kg | 12.3 mg/kg | 4.7 mg/kg | in vivo activity against E. coli compared with compounds P and Q [9]: approximately equal in activity to compound Q and slightly less active than compound P against E. coli; improved in vitro activity against named organisms ([10]; Table I MICs): improved activity against Staph. auerus, Strep. faecalis and Strip. pneumoniae |
| CC[C@H]1COc2c(-c3cc(C)nc(C)c3)c(F)cc3c(=O)c(C(=O)O)cn1c23 [Compound C, (S)-10-(2,6-Dimethyl-4-pyridinyl)-9-fluoro-3-ethyl-7-oxo-2,3-dihydro-7H-pyrido[1,2,3-de][1,4]benzoxazine-6-carboxylic acid] | 0.5 µg/mL (≈ 1.31 µM) | 0.016 µg/mL (≈ 0.0418 µM) | < 0.004 µg/mL | 0.125 µg/mL (≈ 0.327 µM) | 0.06 µg/mL (≈ 0.157 µM) | 4 µg/mL (≈ 10.5 µM) | 0.5 µg/mL (≈ 1.31 µM) | 0.41 mg/kg | 0.2 mg/kg | 32.9 mg/kg | 8.8 mg/kg | more active than compound P against Staph. aureus ([8]; subcutaneous): fifteen; more active than compound Q against Staph. aureus ([8]; subcutaneous): three times more active; improved in vitro activity against named organisms ([10]; Table I MICs): improved activity against Staph. auerus, Strep. faecalis and Strip. pneumoniae |
| Cc1cc(-c2c(F)cc3c(=O)c(C(=O)O)cn4c3c2SC[C@@H]4C)cc(C)n1 [D, (S)-10-(2,6-Dimethyl-4-pyridinyl)-9-fluoro-3-methyl-7-oxo-2,3-dihydro-7H-pyrido[1,2,3-de][1,4]benzothiazine-6-carboxylic acid] | 0.06 µg/mL (≈ 0.156 µM) | 0.06 µg/mL (≈ 0.156 µM) | 0.004 µg/mL (≈ 0.0104 µM) | 0.06 µg/mL (≈ 0.156 µM) | 0.016 µg/mL (≈ 0.0416 µM) | 2 µg/mL (≈ 5.2 µM) | 0.06 µg/mL (≈ 0.156 µM) | 0.03 mg/kg | 0.03 mg/kg | 2.6 mg/kg | 1.5 mg/kg | in vitro activity relative to compound P [3, 21]: sixty times as active as compound P; in vitro activity relative to compound Q [3, 21]: eight times as active as compound Q; in vivo activity against E. coli compared with compounds P and Q [9]: approximately equal in activity to compound Q and slightly less active than compound P against E. coli; in vitro activity compared with prior art compounds P and Q ([10]; Table I MICs): substantilly more active than the prior art compounds (P and Q) against all of the organisms except E. coli and P. aeruginosa |
| Cc1cc(-c2c(F)c(SCc3ccccc3)c3c(=O)c(C(=O)O)cn4c3c2OC[C@@H]4C)cc(C)n1 [Example 4, (S)-8-(Benzylthio)-10-(2,6-dimethyl-4-pyridinyl)-9-fluoro-3-methyl-7-oxo-2,3-dihydro-7H-pyrido[1,2,3-de][1,4]-benzoxazine-6-carboxylic acid] |  |  |  |  |  |  |  |  |  |  |  | MIC ([1]; M. luteus, read-out: MIC): 32 µg/mL (≈ 65.2 µM); MIC ([2]; E. coli, read-out: MIC): 8 µg/mL (≈ 16.3 µM); MIC ([3]; Staph. aureus, read-out: MIC): 1 µg/mL (≈ 2.04 µM); MIC ([4]; Strep. faecalis, read-out: MIC): 32 µg/mL (≈ 65.2 µM); MIC [5, 22]: 8 µg/mL (≈ 16.3 µM); MIC ([7]; B. fragilis, read-out: MIC): 32 µg/mL (≈ 65.2 µM); antibacterial activity in vitro ([10]; in words): appreciable antibacterial activity in vitro |
| CCOC(=O)c1cn2c3c(c(-c4cc(C)nc(C)c4)c(F)cc3c1=O)OC[C@H]2C [Example 6(e), Ethyl (R)-10-(2,6-dimethyl-4-pyridinyl)-9-fluoro-3-methyl-7-oxo-2,3-dihydro-7H-pyrido[1,2,3-de][1,4]benzoxazine-6-carboxylate] |  |  |  |  |  |  |  |  |  |  |  | MIC ([2]; E. coli, read-out: MIC): 1 µg/mL (≈ 2.52 µM); MIC ([3]; Staph. aureus, read-out: MIC): 0.25 µg/mL (≈ 0.631 µM); MIC ([4]; Strep. faecalis, read-out: MIC): 4 µg/mL (≈ 10.1 µM); MIC [5, 22]: 1 µg/mL (≈ 2.52 µM); MIC ([7]; B. fragilis, read-out: MIC): 16 µg/mL (≈ 40.4 µM); antibacterial activity in vitro ([10]; in words): substantial antibacterial activity in vitro; in vitro activity compared with the (S)-isomer (compound B) ([10]; in words): less active than the (S)-isomer (compound B) |
| CC1COc2c(N3CCN(C)CC3)c(F)cc3c(=O)c(C(=O)O)cn1c23 (stereo not drawn) [P, 9-Fluoro-3-methyl-10-(4-methyl-1-piperazinyl)-7-oxo-2,3-dihydro-7H-pyrido[1,2,3-de][1,4]benzoxazine-6-carboxylic acid, reference compound] | 2 µg/mL (≈ 5.53 µM) | 0.008 µg/mL (≈ 0.0221 µM) | 0.25 µg/mL (≈ 0.692 µM) | 2 µg/mL (≈ 5.53 µM) | 0.25 µg/mL (≈ 0.692 µM) | 0.5 µg/mL (≈ 1.38 µM) | 0.5 µg/mL (≈ 1.38 µM) | 6.5 mg/kg | 3 mg/kg | 1.17 mg/kg | 0.48 mg/kg |  |
| CCn1cc(C(=O)O)c(=O)c2cc(F)c(-c3cc(C)nc(C)c3)cc21 [Q, 7-(2,6-Dimethyl-4-pyridinyl)-1-ethyl-6-fluoro-1,4-dihydro-4-oxo-3-quinolinecarboxylic acid, reference compound] | 0.5 µg/mL (≈ 1.47 µM) | 0.06 µg/mL (≈ 0.176 µM) | 0.03 µg/mL (≈ 0.0881 µM) | 0.25 µg/mL (≈ 0.735 µM) | 0.25 µg/mL (≈ 0.735 µM) | 4 µg/mL (≈ 11.8 µM) | 2 µg/mL (≈ 5.88 µM) | 1.38 mg/kg | 0.71 mg/kg | 8.24 mg/kg | 5.39 mg/kg |  |
